Experimental data from patent publication US11571460B2 (priority 2017, dated 2023).

What was measured:
[1] = test system: bone marrow-derived macrophages; experiment: Phagocytosis assay with latex bead-FITC; assay type: cell-based, mouse; settings: vs control group
Protocol: Cells were smeared in a 96-assay well plate and treated as described above. The cells were pretreated for 30 minutes with or without cytochalasin D before treatment with latex bead-FITC (Sigma-Aldrich). After 2 hours of incubation, the cells were washed with PBS three times to remove foreign particles. Fluorescence of internalized beads was measured using emission of 527 nm after excitation of 485 nm in a fluorescent plate reader (Fluorskan Ascent FL) quenching with trypan blue.

splenocytes [2] = experiment: Melittin binding study with rhodamine-bound melittin in splenocytes; assay type: cell-based, mice
Protocol: After 1 hour, cells were harvested and the non-binding peptides were washed twice.
Next, the cells were cultured with rhodamine-bound peptides and stained with CD11b-APC antibodies as described above.
Annexin-V was added to a sample before data collection to distinguish dead cells. […] tumor-associated macrophage was stained with CD86-PEcy7 (e-bioscience) or CD206-PercpCy5.5 (Biolegend). The cells were detected in FACS Calibur or FACS CantoII.

[3] = test system: M1-type bone marrow-derived macrophages; experiment: Intracellular ROS production by H2DCFDA staining; assay type: cell-based, mouse; settings: melittin-treated vs control, 24 hours
Protocol: The cells were added with 5 μM C2′,7′-dichlorodihydrofluorescein diacetate (H2DCFDA; molecular probe) and cultured at 37° C. for 30 minutes. The H2DCFDA-containing medium was removed and the cells were washed twice with preheated PBS. After the cells were collected, ROS production levels were immediately analyzed using flow cytometry.

tumor tissue = experiment: Immunofluorescence confocal microscopy of VEGF and CD31 in tumor tissue; assay type: in vivo, mice
Protocol: The tumor of inoculated mice was fixed overnight with paraformaldehyde, dehydrated, and then placed in paraffin. Slices (5 μm thick) of the inserted tissue were cut in a rotary microtome and deparaffinized. The antigens of the slides were recovered by an autoclave in a trisodium citrate buffer (pH 6) for 1 minute, washed with PBS and then blocked for 1 hour with 1.5% BSA containing 0.2% Triton X-100. The slides were cultured overnight at 4° C. with anti-VEGF and anti-CD31 primary antibodies (1:200, Santa Cruz Biotechnology, Santa Cruz, Calif., USA).
All tissue slices were cultured at room temperature for 1 hour and then visualized with an alexa-488 or alexa-594 conjugated secondary antibody (1:500, Invitrogen). All the antibodies were diluted with a 0.5% BSA solution and cultured in a wet chamber. The slides were fixed with a DAPI solution and analyzed by laser scanning confocal microscopy (Bio-Rad, Richmond, Calif., USA). All images were captured with LSM and total integration density was measured with image J software.

[4] = test system: Lewis lung carcinoma cells; experiment: Tumor growth and survival in mice injected subcutaneously with Lewis lung carcinoma cells; assay type: in vivo, C57BL/6 mice
Protocol: A cancer growth rate in the control group was fast, but the cancer growth in the melittin-treated group was late.
(§1) Lewis lung carcinoma cells were mixed with a Matrigel matrix (Coming, N.Y., USA) to generate a tumor model. Male C57BL/6 wild-type mice (6 to 8 weeks old) were inoculated subcutaneously in the right flank with 5×10^4 cells per mouse. […] Before 3 days of tumor injection, macrophage deficiency was performed by clodronate liposomes (first dose of 200 μl per mouse, maintenance dose of 100 μl intraperitoneally every 4 days). Clodronate liposome and control liposome were purchased from FormuMax (Sunnyvale, Calif., USA). A tumor size was monitored every 2 to 3 days by measuring two opposite diameters (volume=length×width×width/2). If the tumor size exceeded 5% of the body weight, the mice were sacrificed for a next experiment set. Thereafter, the tumor and the spleen were surgically removed.

[5] = test system: Lewis lung carcinoma cells; experiment: Quantitative real-time PCR in Lewis lung carcinoma cells; assay type: cell-based; settings: control vs melittin-treated
Protocol: (§2) Quantitative real time PCR was performed according to previous reports. Data were expressed as […] for experimental genes, normalized to GAPDH, and expressed as a fold change compared to an LPS or IL-4 untreated control group. The following primers were used: Gapdh(for: […] (SEC) ID NO: 1); rev: […] (SEQ ID NO: 2)), Tnf-α(for: TTCTG […] (SEQ ID NO: 3); rev: GTAT […] (SEQ ID NO: 4), Mrc1/CD206(for: […] (SEQ ID NO: 5); rev: GGTT […] (SEQ ID NO: 6)), I1-10(for: […] (SEQ ID NO: 7); rev: […] (SEQ ID NO: 8)), Tgf-β(for: […] (SEQ ID NO: 9); rev: […] (SEQ ID NO: 10)), Vegf(for: GGAGA […] (SEQ ID NO: 11); rev: […](SEQ ID NO: 12)), F1t1/VEGFR1(for: […] (SEQ. ID NO: 13); rev: […] (SEQ ID NO: 14)).

[6] = test system: tumor-associated macrophages (TAM); experiment: Flow cytometry of tumor-associated macrophages in tumor tissue; assay type: in vivo, mice
Protocol: (§3) A tissue was dissociated by cutting the tumor into thin pieces and gently stirring in DNase I (1 U/ml; Roche, Indianapolis, trypsin-EDTA (Gibco)) under DMEM (Welgene) preheated at 37° C. for 1 hour. The tissue was mechanically dissociated in a 100 μm nylon mesh strainer, then single cells passed through a 40 μm nylon mesh strainer, and the spleen was mechanically dissociated with a 40 μm nylon mesh strainer. RBC was dissolved for 5 minutes in a 1× pharmlyse buffer.
(§4) The cells were stained with fluorescent tag antibodies. All data were detected by a FACS Calibur flow cytometer and analyzed with FlowJo software. CD45-FITC, CD3-FITC, CD4-PE, CD4-FITC, CD8-APC, CD11b-APC, CD11 c-PE, CD25 (CD12-FITC)-PE, CD25-APC, B220-FITC, CD19-PE, CD86-APC, and Foxp3-Alexa Fluor647 were purchased from BD bioscience and F4/80-PE and CD206-APC were purchased from Biolegend (San Diego, Calif., USA).
as §1

[7] = Blood cell profile test (hematological profiling); assay type: in vivo, mice
Protocol: The blood was collected from the retro-orbital plexus of mice under anesthesia. The blood was immediately mixed with EDTA and analyzed by a Hemavet 950 auto-sampler (Drew scientific, Waterbury, Conn., USA) according to manufacturer's instructions. The parameters of leukocytes, erythrocytes, and platelets were measured and expressed as a percentage.
The blood was collected via the retro-orbital plexus during anesthesia.

[8] = test system: bone marrow-derived macrophages (BMDM); experiment: ELISA of cytokines in BMDM culture supernatant; assay type: cell-based, mouse
Protocol: (§5) Cells were harvested as previously described to generate mouse bone marrow-derived macrophages. The cells were cultured for 7 days in an RPMI-1640 complete culture medium containing 10 ng/ml of mouse recombinant M-CSF (R & D systems, Minneapolis, Minn., USA). After the cells were differentiated into M0 macrophages, the cells were smeared in a 6-well plate (1×10^6 cells/well) and cultured overnight under 100 ng/ml LPS or 20 ng/ml mouse recombinant IL-4 (R & D system) to induce differentiation of M1 or M2 phenotype macrophages.
The secretion of cytokine from the culture medium was analyzed using an ELISA kit according to a procedure recommended by a provider. Mouse IL-10 and
TNF-α were purchased from BD Biosciences, and TGF-β was purchased from R & D systems. Results were expressed as pg of normalized cytokine per mg of total protein.

[9] = test system: bone marrow-derived macrophages (BMDM); experiment: Western blot analysis of BMDM; assay type: cell-based, mouse
Protocol: as §5
Total proteins were extracted using a RIPA buffer from melittin or PBS treated-bone marrow-derived macrophages and quantified by Bio-Rad analysis. 20 μg of protein was isolated on an 8% SDS Tris-glycine gel and transferred to a nitro cellulose cell membrane (Invitrogen). The following antibodies and dilution factors were used: VEGF goat polyclonal antibody (sc-1836, 1:1000, Santa Cruz), actin goat polyclonal antibody (sc-1616, 1:1000, Santa Cruz), […] CD206 (MCA2235GA 1:200, AbD serotec), anti-goat IgG conjugated to HRP (SA007, 1:1000, GenDEPOT), and anti-rat IgG bound to HRP (405405, 1:1000, Biolegend). Protein bands were visualized using an ECL solution (GE healthcare) and measured with Image J software. The strength of the protein has been normalized above that of actin.

lung cancer cells = experiment: Cell cycle analysis by PI staining and flow cytometry; assay type: cell-based; settings: 0.1 to 2 μg/mL melittin
Protocol: The cells were collected, washed twice with PBS, fixed with 70% pre-cooled ethanol and stored at −20° C. overnight. The cells were washed and resuspended in PBS 500 μl containing 0.1% Triton X-100 and RNase 20 μg/ml. Next, 50 μg/ml of propidium iodide (PI) was added. Stained cells were cultured at 37° C. for 20 minutes and then detected by a FACS Calibur flow cytometer (Becton Dickinson, San Jose, Calif., USA). Data were analyzed by Flow Jo software (Treestar, Inc., San Carlos, Calif., USA).

[10] = test system: bone marrow-derived macrophages (BMDM); experiment: Quantitative real-time PCR in bone marrow-derived macrophages; assay type: cell-based, mouse
Protocol: as §5, §2

[11] = Body weight of tumor-bearing mice; assay type: in vivo
Protocol: The weights of mice were measured every 2 to 3 days until 0 to 18 days.

splenocytes [12] = experiment: Flow cytometry of immune cells in splenocytes of tumor-bearing mice; assay type: in vivo
Protocol: as §3, §4, §1
Screening of the immune cells was performed by flow cytometry on CD4^+ T cells, CD8^+ T cells, B cells, dendritic cells, and macrophages from splenocytes of mice with cancer. The flow cytometry was performed in the same manner as Example 3-2.

[13] = melittin-treated tumor-bearing mice

Q: Which “phagocytic capacity / phagocytosis index” value [1] does the source give for `C=C1[C@@H](C)[C@H]2[C@H](Cc3ccccc3)NC(=O)[C@]23[C@H](OC(C)=O)/C=C/[C@@](C)(O)C(=O)[C@@H](C)C/C=C/[C@H]3[C@@H]1O` [cytochalasin D, reference compound] here?
A: significantly lowered

Q: What about the “melittin+CD11b+ double positive cells in total CD11b+ cell population” value (splenocytes [2]; 10 nM cytochalasin D pretreatment vs DMSO control) of the same compound?
A: no difference

Q: What does the source list for `CC[C@H](C)[C@H](NC(=O)CN)C(=O)NCC(=O)N[C@@H](C)C(=O)N[C@H](C(=O)N[C@@H](CC(C)C)C(=O)N[C@@H](CCCCN)C(=O)N[C@H](C(=O)N[C@@H](CC(C)C)C(=O)N[C@H](C(=O)N[C@H](C(=O)NCC(=O)N[C@@H](CC(C)C)C(=O)N1CCC[C@H]1C(=O)N[C@@H](C)C(=O)N[C@@H](CC(C)C)C(=O)N[C@H](C(=O)N[C@@H](CO)C(=O)N[C@@H](Cc1c[nH]c2ccccc12)C(=O)N[C@H](C(=O)N[C@@H](CCCCN)C(=O)N[C@@H](CCCNC(=N)N)C(=O)N[C@@H](CCCCN)C(=O)N[C@@H](CCCNC(=N)N)C(=O)N[C@@H](CCC(N)=O)C(=O)N[C@@H](CCC(N)=O)C(N)=O)[C@@H](C)CC)[C@@H](C)CC)[C@@H](C)O)[C@@H](C)O)C(C)C)C(C)C` [melittin]?
A: intracellular ROS levels [3]: no difference; integrated density of VEGF (image J) (tumor tissue; 0.5 mg/kg and 1 mg/kg vs PBS control group): significant difference; level of CD31 by immunofluorescence staining (tumor tissue; compared to a PBS group): decrease; level of VEGF by immunofluorescence staining (tumor tissue; compared to a PBS group): decrease; cancer growth reduced compared to the control group ([4]; 0.5 mg/kg melittin peptide intraperitoneal, after 13 days of administration): 40%; cancer growth suppressed compared to the control group ([4]; 0.5 mg/kg melittin peptide intraperitoneal, day 15): about 45%; survival period vs control group (PBS-treated), Mantel-Cox analysis ([4]; tumor-bearing mice): significantly longer; mRNA level of Vegf [5]: no large difference; mRNA level of flt1/VFGFR [5]: no large difference; percentage of CD11b+F4/80+ macrophages in CD45+ tumor-infiltrating leukocytes [6, 13]: 38.70±0.79%; number of F4/80+CD86+ in CD45+ cells ([6]; tumor, M1-type): not increased; percentage of F4/80+CD206+ in CD45+ cells ([6]; tumor, M2-type): 9.53±0.63%; hematological factors (WBC, RBC, Hgb, HCT, MCV and MCH) ([7]; 0.5 mg/kg or 1 mg/kg melittin): did not result in significant changes; acute cytotoxic damage ([7]; judged from N/L ratio): does not cause acute cytotoxic damage; protein level of TNF-α ([8]; LPS stimulation): did not affect; protein expression level of IL-10 ([8]; M2-type BMDM (IL-4)): not changed; protein expression level of TGF-β ([8]; M2-type BMDM (IL-4)): not changed; expression level of CD206 protein [9]: reduced; expression level of VEGF protein [9]: reduced; direct killing effect on cancer cells (lung cancer cells): no direct killing effect; percentage of cells at each cell cycle stage (lung cancer cells; 24 hours): no percentage change; gene level of TNF-α ([10]; LPS stimulation): did not affect; gene expression level of IL-10 ([10]; M2-type BMDM (IL-4)): not changed; gene expression level of TGF-β ([10]; M2-type BMDM (IL-4)): not changed; mRNA level for Mrc1/Cd206 compared to the control group ([10]; M2-type BMDM (IL-4)): significantly reduced; mRNA level for Vegf compared to the control group ([10]; M2-type BMDM (IL-4)): significantly reduced; weight of mice ([11]; day 0): 22.84±0.36; weight of mice ([11]; day 18): 24.72±0.45; weight loss ([11]; measured every 2 to 3 days, 0 to 18 days): no weight loss; other immune cells from total splenocytes (splenocytes [12]; control vs melittin-treated groups): no percentage change; CD45+F480+ macrophages in splenocytes (splenocytes [12]; [13]): 5.10±0.42; number of regulatory T cells in splenocytes (splenocytes [12]; [13]): decreased slightly; level of M1 or M2 type macrophages in splenocytes (splenocytes [12]; spleen): not changed; melittin binding in CD11b+ cells (splenocytes [2]; 0.5 μg/ml rhodamine-bound melittin, 1 hour): approximately 16%; percentage of melittin+CD86+ population in F4/80+ cells (splenocytes [2]; M1 type): 3.27±0.39%; percentage of melittin and CD206 double positive population in F4/80+ cells (splenocytes [2]; M2 type): 9.15±1.05%; melittin binding to DC (CD11c) (splenocytes [2]; rhodamine-bound melittin): 24.44±0.56; melittin binding to macrophages (F4/80) in annexinli-CD11b+ melittin+ cells (splenocytes [2]; rhodamine-bound melittin): 67.70±2.96; melittin binding to neutrophils (Gr-1) (splenocytes [2]; rhodamine-bound melittin): 36.36±0.95
